Results from the NIST ThermoML archive (doi:10.1016/j.jct.2017.04.003).
± gives the expanded uncertainty stated by the source.

`[Na+].[Na+].[O-][O-]` [sodium peroxide] gave a Normal melting temperature (Crystal 1, DTA) of 666.6 ± 10 °C and a Triple point temperature (Crystal 2, DSC) of 756.8 ± 10 K.
